Data taken from patent US10759762B2, “Fluorescent synthetic retinoids” (High Force Research Limited, priority 2014, dated 2020).

Columns and labels:
[1] = background statement; cited from earlier work
[2] = system: TERA-2 cells; experiment: Immunocytochemical staining for Oct 4; type: cell-based
[3] = system: TERA-2 cells; experiment: Immunocytochemical staining for TUJ-1; type: cell-based; conditions: for TUJ-1 staining: 1 and 10 μM
Source text: DMSO treated cells show only limited TUJ-1 staining.

[4] = system: TERA-2 cells; experiment: Immunocytochemical staining for cytokeratin 8 (CK8); type: cell-based; conditions: 10 μM vs 1 μM
[5] = system: TERA-2 cells; experiment: Immunocytochemical staining for Sox 2; type: cell-based; conditions: 1 and 10 μM
[6] = system: TERA-2 cells; experiment: Flow cytometry, early neuronal marker A2B5; type: cell-based
Source text: ATRA treated cells express higher levels of A2B5 followed by EC23® and compound 9.

[7] = system: TERA-2 cells; experiment: Flow cytometry, stem cell marker TRA160; type: cell-based; conditions: for expression of TRA160 compared to DMSO treated cells: flow cytometry
[8] = system: TERA-2 cells; experiment: Flow cytometry, stem cell marker SSEA-3; type: cell-based; conditions: for expression of SSEA-3 compared to DMSO treated cells: flow cytometry
[9] = Stability on exposure to light of wavelength 300 to 400 nm; type: physicochemical; conditions: 3 days exposure to light of wavelength 300 to 400 nm
Source text: Retinoid compounds such as ATRA are unstable upon storage. In particular, such compounds are susceptible to photoisomerisation and degradation upon exposure to light in the 300 to 400 nm region. […] Generally the compounds of formula 1 have far better stability than retinoids such as ATRA, in particular the compounds of formula 1 are far less susceptible to photoisomerisation. Generally, following 3 days exposure to light having a wavelength of 300 to 400 nm, the compounds of the present invention undergo far less isomerisation and degradation than ATRA. Typically at least 60% by weight of the compounds of the present invention remain (compared to less than 40% by weight ATRA) following 3 days exposure to light of wavelength 300 to 400 nm.

[10] = system: cells; experiment: MTT cell viability analysis; type: cell-based; conditions: compared to DMSO
[11] = system: TERA-2 cells; experiment: Immunocytochemical staining for nestin; type: cell-based
[12] = system: cell populations; experiment: Phase contrast images of treated cell populations; type: cell-based
Source text: In cell populations treated with DMSO, the cells are small, and densely packed together.

[13] = Initial fluorescence characterisation (absorption and emission spectra in solvents); type: physicochemical
Source text: Absorption and emission spectra of 9 were obtained in a variety of solvents (FIG. 3 and FIG. 4). […] The fluorescence emission wavelength is also highly dependent on solvent polarity, with a significant red shift occurring in polar solvents when compared to non polar solvents.
This absorption band peaks at around 379 nm, and trails into the indigo/blue (440 nm).

[14] = background statement; cited from earlier work; remark: listed apart in the source
[15] = Light stability of compound 9 by 1H NMR under standard laboratory light; type: physicochemical
Protocol: A ^1H NMR spectrum of compound 9 in DMSO-d6 was recorded after storage at ambient temperature in the absence of light (FIG. 7). The same sample of compound 9 was then exposed to standard laboratory light at a distance of 30 cm for 72 hours, and the ^1H NMR spectrum recorded (FIG. 8). Compound 9 is stable towards typical laboratory lighting over this time period, although a small proportion converts to a structurally similar enamine form. Compound 9 remains stable until around 16 day's exposure, where some indication of degradation becomes apparent. More significant degradation is observed after 22 day's exposure, although compound 9 still represents the major constituent of the sample (>60%).

[16] = 1 M treatment (so in the source)
[17] = both 1 and 10 M treatments (so in the source)

Row | SMILES | stability on exposure to light [1] | Oct 4 staining ([2]; 1 μM) | Oct 4 staining ([2]; 10 μM) | TUJ-1 staining with 10 μM treatment relative to 1 μM [3] | TUJ-1 staining [3] | CK8 staining intensity in 10 μM samples compared with 1 μM samples [4] | Sox 2 staining compared to DMSO treated cells [5] | expression of A2B5 compared to DMSO treated cells [6] | expression of TRA160 compared to DMSO treated cells [7] | expression of SSEA-3 compared to DMSO treated cells [8] | MTT cell viability ([10]; 1 μM treatment) | MTT cell viability ([10]; 10 μM treatment) | nestin staining ([11]; 10 μM treatment) | nestin staining [11, 16] | cell population appearance in contrast to DMSO (small, densely packed) [12] | also measured
1 | CC1=C(/C=C/C(C)=C/C=C/C(C)=C/C(=O)O)C(C)(C)CCC1 [ATRA, All Trans-Retinoic Acid] | poor stability | staining is also evident | do not exhibit staining | increased staining | significant staining | less intense | significantly reduced staining | significantly increased | significantly decreased | significantly decreased | comparable viability to DMSO | comparable viability to DMSO | positive for nestin | positive for nestin | less dense, and cells are much more spread out | level of A2B5 relative to the other retinoids [6]: higher levels; amount of compound remaining [9]: less than 40 % by weight
2 | CC1=CC(C)(C)c2cc(C#Cc3ccc(C(=O)O)cc3)ccc2N1C(C)C [compound 17, 4-2-[2,4,4-Trimethyl-1-(propan-2-yl)-1,4-dihydroquinolin-6-yl]ethynyl benzoic acid] |  |  |  |  |  |  |  |  |  |  |  |  |  |  |  | peak of maximal absorption band ([13]; chloroform (FIG. 5)): around 379 nm
3 | CC1(C)CCC(C)(C)c2cc(C#Cc3ccc(C(=O)O)cc3)ccc21 [EC23®] | good stability | do not exhibit staining | do not exhibit staining | increased staining | significant staining | less intense | significantly reduced staining | significantly increased | significantly decreased | significantly decreased | comparable viability to DMSO | comparable viability to DMSO | positive for nestin with staining possibly to a lesser extent | positive for nestin | less dense, and cells are much more spread out | susceptibility to metabolic degradation [14]: not be susceptible
4 | CC(C)N1CCC(C)(C)c2cc(C#Cc3ccc(C(=O)O)cc3)ccc21 [compound 9, 4-2-[4,4-Dimethyl-1-(propan-2-yl)-1,2,3,4-tetrahydroquinolin-6-yl]ethynylbenzoic acid] |  | do not exhibit staining | do not exhibit staining | increased staining | significant staining | slightly brighter | significantly reduced staining | significantly increased | significantly decreased | significantly decreased | comparable viability to DMSO | comparable viability to DMSO | positive for nestin with staining possibly to a lesser extent | positive for nestin | less dense, and cells are much more spread out | level of TRA160 relative to ATRA and EC23 [7, 17]: slightly higher levels; level of SSEA-3 relative to ATRA and EC23 [8, 17]: higher levels; exposure time until which compound remains stable (first indication of degradation) ([15]; DMSO-d6, standard laboratory light): around 16 day; stability towards typical laboratory lighting ([15]; DMSO-d6, standard laboratory light at 30 cm, 72 hours, ambient temperature): stable; share of the sample still compound 9 (major constituent) ([15]; after 22 day's exposure to laboratory light): > 60%; lowest concentration at which fluorescence was easily detected ([13]; in solvents): 1 nM
